Measurements: paper PMC7044277 (Nature Communications, 2020)
Where “and” joins values, the source holds several entries; their conditions need not be identical. Identical values can stand only once.

Tests used:
Format in all cases: cell-based
320 non-olfactory GPCRs [1] = biological target: T1, 320 non-olfactory GPCRs (Homo sapiens, UniProt O00398); conditions: receptor P2RY10; replicate values, Fig_4g
T1 construct: expressed in transfected cells; host or cells: HTLA cells

320 non-olfactory GPCRs [2] = biological target: T2, 320 non-olfactory GPCRs (Homo sapiens, UniProt Q86SM8); conditions: receptor MRGPRE; replicate values, Fig_4g
T2 construct: expressed in transfected cells; host or cells: HTLA cells

320 non-olfactory GPCRs [3] = biological target: 320 non-olfactory GPCRs (Homo sapiens, UniProt Q96PE1)
320 non-olfactory GPCRs [4] = biological target: T3, 320 non-olfactory GPCRs (Homo sapiens, UniProt P46663)
T3 construct: expressed in transfected cells; host or cells: HTLA cells
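Wherever Fold of Basal is given: compound tested at 1 µM final concentration.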
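Wherever GPCRome agonism screen response is given: fold over basal response of each receptor without drug.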

Sequence of 320 non-olfactory GPCRs (Homo sapiens, UniProt Q96PE1) (Q96PE1 34-1338): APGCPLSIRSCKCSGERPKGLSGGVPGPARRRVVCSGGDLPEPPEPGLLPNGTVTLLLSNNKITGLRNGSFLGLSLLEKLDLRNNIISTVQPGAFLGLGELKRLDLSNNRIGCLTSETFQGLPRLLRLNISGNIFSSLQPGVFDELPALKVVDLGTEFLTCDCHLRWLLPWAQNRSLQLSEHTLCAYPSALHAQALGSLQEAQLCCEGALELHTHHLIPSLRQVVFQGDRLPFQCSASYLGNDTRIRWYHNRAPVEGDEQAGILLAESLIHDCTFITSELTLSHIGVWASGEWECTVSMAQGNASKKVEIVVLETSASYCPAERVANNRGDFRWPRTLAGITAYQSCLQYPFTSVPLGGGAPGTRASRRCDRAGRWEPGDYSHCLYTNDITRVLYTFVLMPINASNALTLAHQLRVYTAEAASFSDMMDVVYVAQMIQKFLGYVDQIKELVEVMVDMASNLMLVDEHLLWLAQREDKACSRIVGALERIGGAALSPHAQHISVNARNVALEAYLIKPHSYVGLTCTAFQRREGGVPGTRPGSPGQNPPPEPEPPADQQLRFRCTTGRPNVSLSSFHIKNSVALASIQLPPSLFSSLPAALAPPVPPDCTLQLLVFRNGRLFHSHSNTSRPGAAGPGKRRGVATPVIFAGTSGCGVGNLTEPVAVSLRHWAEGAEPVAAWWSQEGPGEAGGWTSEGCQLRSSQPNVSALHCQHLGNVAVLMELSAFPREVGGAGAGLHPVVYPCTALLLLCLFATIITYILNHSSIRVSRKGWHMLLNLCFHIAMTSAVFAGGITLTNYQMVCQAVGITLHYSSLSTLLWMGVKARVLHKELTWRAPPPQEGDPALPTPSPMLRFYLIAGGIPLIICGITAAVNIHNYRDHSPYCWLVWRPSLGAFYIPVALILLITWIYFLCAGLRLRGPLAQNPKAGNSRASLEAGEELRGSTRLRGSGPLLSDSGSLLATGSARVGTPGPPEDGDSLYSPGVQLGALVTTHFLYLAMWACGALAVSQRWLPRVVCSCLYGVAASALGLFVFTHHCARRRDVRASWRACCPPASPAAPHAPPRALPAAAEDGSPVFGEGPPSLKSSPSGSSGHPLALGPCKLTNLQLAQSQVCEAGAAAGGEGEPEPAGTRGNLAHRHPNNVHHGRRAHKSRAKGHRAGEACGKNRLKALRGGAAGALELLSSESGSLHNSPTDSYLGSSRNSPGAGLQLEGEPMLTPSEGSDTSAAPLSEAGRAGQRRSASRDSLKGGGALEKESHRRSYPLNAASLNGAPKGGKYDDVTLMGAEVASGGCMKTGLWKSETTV
T3 sequence (P46663 whole entry): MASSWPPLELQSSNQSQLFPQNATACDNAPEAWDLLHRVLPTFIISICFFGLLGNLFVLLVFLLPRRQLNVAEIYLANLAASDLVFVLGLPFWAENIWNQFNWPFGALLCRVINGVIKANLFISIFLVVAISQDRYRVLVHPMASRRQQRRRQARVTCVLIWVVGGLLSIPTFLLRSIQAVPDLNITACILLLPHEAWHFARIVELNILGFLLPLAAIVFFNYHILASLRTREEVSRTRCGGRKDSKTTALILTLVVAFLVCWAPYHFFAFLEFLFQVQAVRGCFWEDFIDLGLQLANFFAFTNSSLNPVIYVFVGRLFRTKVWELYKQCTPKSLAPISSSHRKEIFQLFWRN
T1 sequence (O00398 whole entry): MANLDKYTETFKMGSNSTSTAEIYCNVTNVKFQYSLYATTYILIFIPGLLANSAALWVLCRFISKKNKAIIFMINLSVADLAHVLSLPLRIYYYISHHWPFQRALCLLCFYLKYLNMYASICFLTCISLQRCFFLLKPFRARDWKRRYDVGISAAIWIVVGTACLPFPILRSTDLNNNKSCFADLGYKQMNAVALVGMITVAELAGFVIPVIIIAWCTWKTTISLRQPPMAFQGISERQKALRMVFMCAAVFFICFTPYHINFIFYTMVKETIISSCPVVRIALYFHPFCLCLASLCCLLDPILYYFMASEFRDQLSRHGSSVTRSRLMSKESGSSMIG
T2 sequence (Q86SM8 whole entry): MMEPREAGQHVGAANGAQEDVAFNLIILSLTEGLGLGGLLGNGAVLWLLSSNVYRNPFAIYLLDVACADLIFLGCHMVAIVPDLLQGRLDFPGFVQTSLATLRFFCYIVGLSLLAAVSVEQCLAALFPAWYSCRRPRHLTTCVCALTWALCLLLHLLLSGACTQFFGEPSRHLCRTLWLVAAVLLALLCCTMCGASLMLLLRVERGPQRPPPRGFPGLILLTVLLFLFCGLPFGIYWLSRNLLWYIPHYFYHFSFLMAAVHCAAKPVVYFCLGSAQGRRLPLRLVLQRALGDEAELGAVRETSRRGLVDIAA

CCOc1cccc2cc(C(C)NCC3(O)CCCCC3)oc12 (stereo not shown) [O4LE6]
GPCRome agonism screen response (320 non-olfactory GPCRs [1]): 0.6744 and 0.6284 and 0.7052 and 0.972
GPCRome agonism screen response (320 non-olfactory GPCRs [2]): 0.6882 and 1.103 and 0.7685 and 1.012
Fold of Basal (320 non-olfactory GPCRs [3]): 1.7314 and 1.927 and 1.697 and 1.27
Fold of Basal (320 non-olfactory GPCRs [4]): 0.6703 and 0.866 and 0.6219 and 0.6427
